US11434242B2, “Dopamine-b-hydroxylase inhibitors” (BIAL-PORTELA & Cª, S.A., priority 2017, dated 2022)

Target: T1, Dopamine beta hydroxylase (Homo sapiens, UniProt P09172)
T1 construct: 125 μl of plasma; tissue Instituto Português do Sangue Transplantação; host or cells: human plasma from healthy donors
T1 sequence (P09172 40-617 limits assumed): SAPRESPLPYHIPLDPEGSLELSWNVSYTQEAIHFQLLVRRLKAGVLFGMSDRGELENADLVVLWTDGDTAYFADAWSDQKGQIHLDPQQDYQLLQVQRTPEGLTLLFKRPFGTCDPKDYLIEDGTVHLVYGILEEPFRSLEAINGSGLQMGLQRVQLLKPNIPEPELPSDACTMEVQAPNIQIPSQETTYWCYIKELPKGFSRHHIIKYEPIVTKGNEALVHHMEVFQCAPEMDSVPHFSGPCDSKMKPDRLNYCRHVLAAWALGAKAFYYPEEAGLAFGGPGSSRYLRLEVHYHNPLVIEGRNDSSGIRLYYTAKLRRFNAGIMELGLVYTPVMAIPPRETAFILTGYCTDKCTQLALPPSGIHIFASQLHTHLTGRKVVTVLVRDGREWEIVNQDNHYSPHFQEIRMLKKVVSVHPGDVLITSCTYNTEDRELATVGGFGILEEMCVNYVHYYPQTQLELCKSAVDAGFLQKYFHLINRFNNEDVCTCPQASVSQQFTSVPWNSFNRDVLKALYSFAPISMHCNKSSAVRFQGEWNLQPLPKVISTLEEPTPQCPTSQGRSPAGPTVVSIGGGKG
Experiment: Dopamine beta hydroxylase activity in human plasma
Assay type: biochemical
Conditions: for Plasma (0.01 μM), activity in % of control: inhibitor 0.01 μM; for Plasma (0.1 μM), activity in % of control: inhibitor 0.1 μM; for Plasma (1 μM), activity in % of control: inhibitor 1 μM
Outline: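 Octopamine production from tyramine over 45 min at 37° C, measured photometrically at 330 nm after SCX extraction and periodate oxidation against an octopamine standard curve, indicates plasma DβH activity. Compounds tested at final 10, 100 and 1000 nM in human plasma, pH 5.0 cofactor buffer, 10 min preincubation; results as % of control.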

Structure (SMILES) | Plasma (0.01 μM), activity in % of control | Plasma (0.1 μM), activity in % of control | Plasma (1 μM), activity in % of control
Cn1c(CC(=O)N[C@@H]2CCOC2)c2n(c1=S)C[C@H](c1cc(F)cc(F)c1)C2 [Example 425, 2-((S)-6-(3,5-difluorophenyl)-2-methyl-3-thioxo-2,5,6,7-tetrahydro-3H-pyrrolo[1,2-c]imidazol-1-yl)-N—((R)-tetrahydrofuran-3-yl)acetamide] | 78.6 % of control | 52.0 % of control | –
[2H]C([2H])([2H])n1c(CC(=O)N[C@@H]2CCCOC2)c2n(c1=S)C[C@@]1(c3cc(Br)ccc3F)C[C@@H]21 [Example 464, 2-((5aS,6aR)-5a-(5-bromo-2-fluorophenyl)-2-(methyl-d)-3-thioxo-2,3,5,5a,6,6a-hexahydrocyclopropa[3,4]pyrrolo[1,2-c]imidazol-1-yl)-N—((R)-tetrahydro-2H-pyran-3-yl)acetamide] | 33.4 % of control | 4.5 % of control | –
CS(=O)(=O)NC(=O)Cc1[nH]c(=S)n2c1C[C@@H](c1cc(Br)ccc1F)C2 [Example 21, (S)-2-(6-(5-bromo-2-fluorophenyl)-3-thioxo-2,5,6,7-tetrahydro-3H-pyrrolo[1,2-c]imidazol-1-yl)-N-(methylsulfonyl)acetamide] | – | 69.2 % of control | 16.7 % of control
CN(C)C(=O)CN1CCN(C(=O)Cc2[nH]c(=S)n3c2C[C@H](c2c(F)c(F)cc(F)c2F)C3)CC1 [Example 85, (R)—N,N-dimethyl-2-(4-(2-(6-(2,3,5,6-tetrafluorophenyl)-3-thioxo-2,5,6,7-tetrahydro-3H-pyrrolo[1,2-c]imidazol-1-yl)acetyl)piperazin-1-yl)acetamide] | – | 59.1 % of control | 12.2 % of control
Fc1cc(F)c(F)c([C@H]2Cc3c(CCc4ccccn4)[nH]c(=S)n3C2)c1F [Example 213, (R)-1-(2-(pyridin-2-yl)ethyl)-6-(2,3,5,6-tetrafluorophenyl)-2,5,6,7-tetrahydro-3H-pyrrolo[1,2-c]imidazole-3-thione] | 105.9 % of control | 66.6 % of control | –
COCCNC(=O)Cc1[nH]c(=S)n2c1C[C@@H](c1c(F)ccc(Br)c1F)C2 [Example 103, (S)-2-(6-(3-bromo-2,6-difluorophenyl)-3-thioxo-2,5,6,7-tetrahydro-3H-pyrrolo[1,2-c]imidazol-1-yl)-N-(2-methoxyethyl)acetamide] | – | 21.6 % of control | 1.8 % of control
O=C(O)Cc1[nH]c(=S)n2c1C[C@H](c1c(F)ccc(Br)c1F)C2 [Example 13, (R)-2-(6-(3-bromo-2,6-difluorophenyl)-3-thioxo-2,5,6,7-tetrahydro-3H-pyrrolo[1,2-c]imidazol-1-yl)acetic Acid] | – | 68.0 % of control | 13.9 % of control
N#CN/C(N)=N/Cc1[nH]c(=S)n2c1C[C@@H](c1c(F)ccc(Br)c1F)C2 [Example 224, 2-{[(6S)-6-(3-bromo-2,6-difluorophenyl)-3-thioxo-2,5,6,7-tetrahydro-3H-pyrrolo[1,2-c]imidazol-1-yl]methyl}-1-cyanoguanidine] | 22.6 % of control | 0.6 % of control | –
O=C(O)Cc1[nH]c(=S)n2c1C[C@H](c1c(F)cccc1F)C2 [Example 18, (R)-2-(6-(2,6-difluorophenyl)-3-thioxo-2,5,6,7-tetrahydro-3H-pyrrolo[1,2-c]imidazol-1-yl)acetic Acid] | – | 81.0 % of control | 19.8 % of control
O=C(Cc1[nH]c(=S)n2c1C[C@H](c1c(F)ccc(Br)c1F)C2)N[C@H]1CCC[C@@H]1O [Example 161, 2-((R)-6-(3-bromo-2,6-difluorophenyl)-3-thioxo-2,5,6,7-tetrahydro-3H-pyrrolo[1,2-c]imidazol-1-yl)-N-((1S,2S)-2-hydroxycyclopentyl)acetamide] | 85.0 % of control | 46.0 % of control | –
[2H]C([2H])([2H])n1c(CC(=O)N[C@H]2CCOC2)c2n(c1=S)C[C@@]1(c3cc(Br)ccc3F)C[C@@H]21 [Example 461, 2-((5aS,6aR)-5a-(5-bromo-2-fluorophenyl)-2-(methyl-d)-3-thioxo-2,3,5,5a,6,6a-hexahydrocyclopropa[3,4]pyrrolo[1,2-c]imidazol-1-yl)-N—((S)-tetrahydrofuran-3-yl)acetamide] | 45.6 % of control | 6.9 % of control | –
OCCc1[nH]c(=S)n2c1C[C@H](c1c(F)c(F)cc(F)c1F)C2 [Example 172, (R)-1-(2-hydroxyethyl)-6-(2,3,5,6-tetrafluorophenyl)-2,5,6,7-tetrahydro-3H-pyrrolo[1,2-c]imidazole-3-thione] | – | 46.3 % of control | 8.1 % of control
O=C(Cc1[nH]c(=S)n2c1C[C@@H](c1c(F)ccc(Br)c1F)C2)NC1CCOCC1 [Example 410, (S)-2-(6-(3-bromo-2,6-difluorophenyl)-3-thioxo-2,5,6,7-tetrahydro-3H-pyrrolo[1,2-c]imidazol-1-yl)-N-(tetrahydro-2H-pyran-4-yl)acetamide] | 62.3 % of control | 11.1 % of control | –
Cn1c(CC(=O)N[C@H]2CCOC2)c2n(c1=S)C[C@H](c1cc(F)cc(F)c1)C2 [Example 426, 2-((S)-6-(3,5-difluorophenyl)-2-methyl-3-thioxo-2,5,6,7-tetrahydro-3H-pyrrolo[1,2-c]imidazol-1-yl)-N—((S)-tetrahydrofuran-3-yl)acetamide] | 83.5 % of control | 66.3 % of control | –
Cn1c(CC(=O)NC2COC2)c2n(c1=S)C[C@@]1(c3cc(Br)ccc3F)C[C@@H]21 [Example 437, 2-((5aS,6aR)-5a-(5-bromo-2-fluorophenyl)-2-methyl-3-thioxo-2,3,5,5a,6,6a-hexahydrocyclopropa[3,4]pyrrolo[1,2-c]imidazol-1-yl)-N-(oxetan-3-yl)acetamide] | 62.7 % of control | 6.1 % of control | –
Cn1c(CC(=O)NCC2CCOCC2)c2n(c1=S)C[C@H](c1cc(F)cc(F)c1)C2 [Example 428, (S)-2-(6-(3,5-difluorophenyl)-2-methyl-3-thioxo-2,5,6,7-tetrahydro-3H-pyrrolo[1,2-c]imidazol-1-yl)-N-((tetrahydro-2H-pyran-4-yl)methyl)acetamide] | 68.2 % of control | 32.3 % of control | –
O=C(Cc1[nH]c(=S)n2c1C[C@H](c1c(F)ccc(Br)c1F)C2)N1CCOCC1 [Example 141, (R)-2-(6-(3-bromo-2,6-difluorophenyl)-3-thioxo-2,5,6,7-tetrahydro-3H-pyrrolo[1,2-c]imidazol-1-yl)-1-morpholinoethan-1-one] | 93.2 % of control | 76.1 % of control | –
COCCNC(=O)Cc1[nH]c(=S)n2c1C[C@@H](c1c(F)ccc(Cl)c1F)C2 [Example 107, (S)-2-(6-(3-chloro-2,6-difluorophenyl)-3-thioxo-2,5,6,7-tetrahydro-3H-pyrrolo[1,2-c]imidazol-1-yl)-N-(2-methoxyethyl)acetamide] | – | 40.1 % of control | 6.3 % of control
Cn1c(CC(=O)NC2COC2)c2n(c1=S)C[C@H](c1c(F)ccc(Cl)c1F)C2 [Example 333, (S)-2-(6-(3-chloro-2,6-difluorophenyl)-2-methyl-3-thioxo-2,5,6,7-tetrahydro-3H-pyrrolo[1,2-c]imidazol-1-yl)-N-(oxetan-3-yl)acetamide] | 47.5 % of control | 11.7 % of control | –
O=C(Cc1[nH]c(=S)n2c1C[C@H](c1c(F)ccc(F)c1F)C2)N1CCOCC1 [Example 366, (R)-2-(6-(2,3,6-trifluorophenyl)-3-thioxo-2,5,6,7-tetrahydro-3H-pyrrolo[1,2-c]imidazol-1-yl)-1-morpholinoethan-1-one] | 124.8 % of control | 81.4 % of control | –
Cn1c(CC(=O)NC2COC2)c2n(c1=S)C[C@H](c1c(F)ccc(F)c1F)C2 [Example 432, (S)-2-(2-methyl-3-thioxo-6-(2,3,6-trifluorophenyl)-2,5,6,7-tetrahydro-3H-pyrrolo[1,2-c]imidazol-1-yl)-N-(oxetan-3-yl)acetamide] | 79.7 % of control | 43.7 % of control | –
Cn1c(CCC(N)=O)c2n(c1=S)C[C@H](c1c(F)ccc(Cl)c1F)C2 [Example 262, (S)-3-(6-(3-chloro-2,6-difluorophenyl)-2-methyl-3-thioxo-2,5,6,7-tetrahydro-3H-pyrrolo[1,2-c]imidazol-1-yl)propanamide] | 82.6 % of control | 70.1 % of control | –
